Experimental data as given in patent US12371464B2, “Polypeptides and uses thereof” (MEDIMMUNE LIMITED, priority 2020, dated 2025).
Numbered stars: 1 amine (or outer) side, 2 acyl side, 3 side chain; on linkers, the order of the positions; unused ones are H or OH. Bridge positions count the residues as written; N and C are the ends. Square brackets hold non-standard residues; d marks the D form. Side chains are listed from the residue outwards. Peptide text beside a SMILES is read from it. * marks the point of attachment. C18 diacid = O=C(O)CCCCCCCCCCCCCCCCC(=O)*; γGlu = O=C(O)[C@H](CCC(=O)[*:2])N[*:1]; αMeF = C[C@](N)(Cc1ccccc1)C(=O)O; Dab = NCC[C@H](N)C(=O)O; Aib = CC(C)(N)C(=O)O

Assay: Thioflavin T fibrillation assay
Assay type: physicochemical
Conditions: 1 mg/mL in 25 mM sodium acetate buffer pH 4.0, 37° C., 6 days, orbital shaking; >144 h = no increase
Text: Peptide aggregation that form fibrils is an indication of physical instability. Fibril formation in solution poses a significant risk for the stability of injectable peptide drug products. Thioflavin T (ThT) fibrillation assay is a useful tool to assess the aggregation kinetics of a peptide or protein under accelerated and stressed conditions that can be used to forecast the long-term viability of a compound in solution. ThT can selectively bind amyloid fibrils and the resultant complex emits strong fluorescence signal at 482 nm when excited at 450 nm (Anal Biochem. 1989 March; 177 (2): 244-9). Monitoring of the change in fluorescence signal is an established method to study the fibril forming potential of peptides and proteins. ThT (purchased from Sigma Aldrich) stock solution is prepared by dissolving the ThT powder in Milli-Q water and filtered to obtain a 0.25 mM solution. The concentration of the solution is measured at 412 nm using an extinction coefficient of 36 mM-1 cm-1. Test peptides were dissolved at 1 mg/mL in 25 mM sodium acetate buffer pH 4.0. 100 μL aliquot of peptide solution and 5 μL aliquot of ThT solution were placed in a clear bottom black fluorescence 96-well plate. 5 replicates of each test samples were placed in the same row of the plate. Buffer was placed in control wells for baseline correction. All empty wells were filled with water to prevent evaporation. The plate was sealed with aluminium seal and placed in fluorescence plate reader and incubated for 6 days at 37° C. with intermittent orbital shaking at 500 to 750 rpm. The fluorescence intensity was measured every 30 min using excitation at 444 nm and emission at 480 nm. The fibril forming potential of the test peptides was determined by measuring the average time taken to detect an increase in baseline corrected fluorescence intensity.

Time taken to detect increase in fluorescence intensity [h]	SMILES
>144	CC[C@H](C)[C@H](NC(=O)[C@@H]1CCCN1C(=O)CNC(=O)[C@](C)(Cc1ccccc1)NC(=O)[C@H](CC(N)=O)NC(=O)[C@H](CC(N)=O)NC(=O)[C@H](CO)NC(=O)[C@H](CO)NC(=O)[C@H](Cc1c[nH]cn1)NC(=O)[C@@H](NC(=O)[C@H](CC(C)C)NC(=O)[C@H](Cc1ccccc1)NC(=O)[C@H](CC(N)=O)NC(=O)[C@H](C)NC(=O)[C@H](CC(C)C)NC(=O)[C@H](CCCNC(=N)N)NC(=O)[C@H](CCC(N)=O)NC(=O)[C@@H](NC(=O)[C@H](C)NC(=O)[C@@H]1CSSC[C@H](NC(=O)[C@@H](N)CCCCNC(=O)CC[C@H](NC(=O)CCCCCCCCCCCCCCCCC(=O)O)C(=O)O)C(=O)N[C@@H](CC(N)=O)C(=O)N[C@@H]([C@@H](C)O)C(=O)N[C@@H](C)C(=O)N[C@@H]([C@@H](C)O)C(=O)N1)[C@@H](C)O)C(C)C)C(=O)N[C@@H](CC(C)C)C(=O)N1CCC[C@H]1C(=O)N1CCC[C@H]1C(=O)N[C@H](C(=O)N[C@@H](CCCNC(=N)N)C(=O)N[C@H](C(=O)NCC(=O)N[C@@H](CO)C(=O)N[C@@H](CC(N)=O)C(=O)N[C@H](C(=O)N[C@@H](Cc1ccc(O)cc1)C(N)=O)[C@@H](C)O)C(C)C)[C@@H](C)O [Peptide 25, K(γE-C18diacid)[CNTATC]ATQRLANFLVHSSNN(αMePhe)GPILPPTRVGSNTY-amide] (H-K([γGlu-C18 diacid])CNTATCATQRLANFLVHSSNN[αMeF]GPILPPTRVGSNTY-NH2; disulfide 2-7; N-terminus assumed)
>144	CC[C@H](C)[C@H](NC(=O)[C@@H]1CCCN1C(=O)CNC(=O)[C@H](Cc1ccccc1)NC(=O)[C@H](CC(N)=O)NC(=O)[C@H](CC(N)=O)NC(=O)[C@H](CO)NC(=O)[C@H](CO)NC(=O)[C@H](Cc1c[nH]cn1)NC(=O)C(C)(C)NC(=O)[C@H](CC(C)C)NC(=O)[C@H](Cc1ccccc1)NC(=O)[C@H](CCN)NC(=O)[C@H](C)NC(=O)[C@H](CC(C)C)NC(=O)[C@H](CCCNC(=N)N)NC(=O)[C@H](CCC(N)=O)NC(=O)[C@@H](NC(=O)[C@H](C)NC(=O)[C@@H]1CSSC[C@H](NC(=O)[C@H](CCCCN)NC(=O)[C@@H](N)CCCCNC(=O)CC[C@H](NC(=O)CCCCCCCCCCCCCCCCC(=O)O)C(=O)O)C(=O)N[C@@H](CC(N)=O)C(=O)N[C@@H]([C@@H](C)O)C(=O)N[C@@H](C)C(=O)N[C@@H]([C@@H](C)O)C(=O)N1)[C@@H](C)O)C(=O)N[C@@H](CC(C)C)C(=O)N1CCC[C@H]1C(=O)N1CCC[C@H]1C(=O)N[C@H](C(=O)N[C@@H](CCC(=O)O)C(=O)N[C@H](C(=O)NCC(=O)N[C@@H](CO)C(=O)N[C@@H](CC(N)=O)C(=O)N[C@H](C(=O)N[C@@H](Cc1ccc(O)cc1)C(N)=O)[C@@H](C)O)C(C)C)[C@@H](C)O [Peptide 156] (H-K([γGlu-C18 diacid])KCNTATCATQRLA[Dab]FL[Aib]HSSNNFGPILPPTEVGSNTY-NH2; disulfide 3-8; N-terminus assumed)
45	CC[C@H](C)[C@H](NC(=O)[C@@H]1CCCN1C(=O)CNC(=O)[C@H](Cc1ccccc1)NC(=O)[C@H](CC(N)=O)NC(=O)[C@H](CCN)NC(=O)[C@H](CO)NC(=O)[C@H](CO)NC(=O)[C@H](Cc1c[nH]cn1)NC(=O)[C@@H](NC(=O)[C@H](CC(C)C)NC(=O)[C@H](Cc1ccccc1)NC(=O)[C@H](CC(N)=O)NC(=O)[C@H](C)NC(=O)[C@H](CC(C)C)NC(=O)[C@H](CCCNC(=N)N)NC(=O)[C@H](CCC(N)=O)NC(=O)[C@@H](NC(=O)[C@H](C)NC(=O)[C@@H]1CSSC[C@H](NC(=O)[C@H](CCCCN)NC(=O)[C@@H](N)CCCCNC(=O)CC[C@H](NC(=O)CCCCCCCCCCCCCCCCC(=O)O)C(=O)O)C(=O)N[C@@H](CC(N)=O)C(=O)N[C@@H]([C@@H](C)O)C(=O)N[C@@H](C)C(=O)N[C@@H]([C@@H](C)O)C(=O)N1)[C@@H](C)O)C(C)C)C(=O)N[C@@H](CC(C)C)C(=O)N1CCC[C@H]1C(=O)N1CCC[C@H]1C(=O)N[C@H](C(=O)N[C@@H](CCC(=O)O)C(=O)N[C@H](C(=O)NCC(=O)N[C@@H](CO)C(=O)N[C@@H](CC(N)=O)C(=O)N[C@H](C(=O)N[C@@H](Cc1ccc(O)cc1)C(N)=O)[C@@H](C)O)C(C)C)[C@@H](C)O [Peptide 28, K(γE-C18diacid)K[CNTATC]ATQRLANFLVHSS(Dab)NFGPILPPTEVGSNTY-amide] (H-K([γGlu-C18 diacid])KCNTATCATQRLANFLVHSS[Dab]NFGPILPPTEVGSNTY-NH2; disulfide 3-8; N-terminus assumed)
>144	CC[C@H](C)[C@H](NC(=O)[C@@H]1CCCN1C(=O)CNC(=O)[C@H](Cc1ccccc1)NC(=O)[C@H](CC(N)=O)NC(=O)C(C)(C)NC(=O)[C@H](CO)NC(=O)[C@H](CO)NC(=O)[C@H](Cc1c[nH]cn1)NC(=O)[C@H](CCCNC(=N)N)NC(=O)[C@H](CC(C)C)NC(=O)[C@H](Cc1ccccc1)NC(=O)[C@H](CC(N)=O)NC(=O)[C@H](C)NC(=O)[C@H](CC(C)C)NC(=O)[C@H](CCCNC(=N)N)NC(=O)[C@H](CCC(N)=O)NC(=O)[C@@H](NC(=O)[C@H](C)NC(=O)[C@@H]1CSSC[C@H](NC(=O)[C@@H](N)CCCCNC(=O)CC[C@H](NC(=O)CCCCCCCCCCCCCCCCC(=O)O)C(=O)O)C(=O)N[C@@H](CC(N)=O)C(=O)N[C@@H]([C@@H](C)O)C(=O)N[C@@H](C)C(=O)N[C@@H]([C@@H](C)O)C(=O)N1)[C@@H](C)O)C(=O)N[C@@H](CC(C)C)C(=O)N1CCC[C@H]1C(=O)N1CCC[C@H]1C(=O)N[C@H](C(=O)N[C@@H](CC(N)=O)C(=O)N[C@H](C(=O)NCC(=O)N[C@@H](CO)C(=O)N[C@@H](CC(N)=O)C(=O)N[C@H](C(=O)N[C@@H](Cc1ccc(O)cc1)C(N)=O)[C@@H](C)O)C(C)C)[C@@H](C)O [Peptide 48, K(γE-C18diacid)[CNTATC]ATQRLANFLRHSS(Aib)NFGPILPPTNVGSNTY-amide] (H-K([γGlu-C18 diacid])CNTATCATQRLANFLRHSS[Aib]NFGPILPPTNVGSNTY-NH2; disulfide 2-7; N-terminus assumed)

The next lines start with the molecule.

SMILES	Time taken to detect increase in fluorescence intensity [h]
CC[C@H](C)[C@H](NC(=O)[C@H](C)NC(=O)[C@@H]1CCCN1C(=O)[C@H](Cc1ccccc1)NC(=O)[C@H](CC(N)=O)NC(=O)C(C)(C)NC(=O)[C@H](CO)NC(=O)[C@H](CO)NC(=O)[C@H](Cc1c[nH]cn1)NC(=O)[C@@H](NC(=O)[C@H](CC(C)C)NC(=O)[C@H](Cc1ccccc1)NC(=O)[C@H](CC(N)=O)NC(=O)[C@H](C)NC(=O)[C@H](CC(C)C)NC(=O)[C@H](CCCNC(=N)N)NC(=O)[C@H](CCC(N)=O)NC(=O)[C@@H](NC(=O)[C@H](C)NC(=O)[C@@H]1CSSC[C@H](NC(=O)[C@@H](N)CCCCNC(=O)CC[C@H](NC(=O)CC[C@H](NC(=O)CCCCCCCCCCCCCCCCC(=O)O)C(=O)O)C(=O)O)C(=O)N[C@@H](CC(N)=O)C(=O)N[C@@H]([C@@H](C)O)C(=O)N[C@@H](C)C(=O)N[C@@H]([C@@H](C)O)C(=O)N1)[C@@H](C)O)C(C)C)C(=O)N[C@@H](CC(C)C)C(=O)N[C@@H](CO)C(=O)N1CCC[C@H]1C(=O)N[C@H](C(=O)N[C@@H](CC(N)=O)C(=O)N[C@H](C(=O)NCC(=O)N[C@@H](CO)C(=O)N[C@@H](CC(N)=O)C(=O)N[C@H](C(=O)N[C@@H](Cc1ccc(O)cc1)C(N)=O)[C@@H](C)O)C(C)C)[C@@H](C)O [Peptide 9, K(γE-γE-C18diacid)[CNTATC]ATQRLANFLVHSS(Aib)NFPAILSPTNVGSNTY-amide] (H-K([γGlu-γGlu-C18 diacid])CNTATCATQRLANFLVHSS[Aib]NFPAILSPTNVGSNTY-NH2; disulfide 2-7; N-terminus assumed)	7
CC[C@H](C)[C@H](NC(=O)[C@@H]1CCCN1C(=O)CNC(=O)[C@](C)(Cc1ccccc1)NC(=O)[C@H](CC(N)=O)NC(=O)[C@H](CC(N)=O)NC(=O)[C@H](CO)NC(=O)[C@H](CO)NC(=O)[C@H](Cc1c[nH]cn1)NC(=O)[C@H](CCCNC(=N)N)NC(=O)[C@H](CC(C)C)NC(=O)[C@H](Cc1ccccc1)NC(=O)[C@H](CCC(=O)O)NC(=O)[C@H](C)NC(=O)[C@H](CC(C)C)NC(=O)[C@H](CCCNC(=N)N)NC(=O)[C@H](CCC(N)=O)NC(=O)[C@@H](NC(=O)[C@H](C)NC(=O)[C@@H]1CSSC[C@H](NC(=O)CC[C@H](NC(=O)CCCCCCCCCCCCCCCCC(=O)O)C(=O)O)C(=O)N[C@@H](CC(N)=O)C(=O)N[C@@H]([C@@H](C)O)C(=O)N[C@@H](C)C(=O)N[C@@H]([C@@H](C)O)C(=O)N1)[C@@H](C)O)C(=O)N[C@@H](CC(C)C)C(=O)N1CCC[C@H]1C(=O)N1CCC[C@H]1C(=O)N[C@H](C(=O)N[C@@H](CC(N)=O)C(=O)N[C@H](C(=O)NCC(=O)N[C@@H](CO)C(=O)N[C@@H](CC(N)=O)C(=O)N[C@H](C(=O)N[C@@H](Cc1ccc(O)cc1)C(N)=O)[C@@H](C)O)C(C)C)[C@@H](C)O [Peptide 10, C18diacid-γE-[CNTATC]ATQRLAEFLRHSSNN(αMePhe)GPILPPTNVGSNTY-amide] ({C18 diacid-γGlu}-CNTATCATQRLAEFLRHSSNN[αMeF]GPILPPTNVGSNTY-NH2; disulfide 1-6)	>144
